Experiment: Activity was evaluated by inhibition of the binding of 1 nM [3H]DPDPE at Opioid receptor delta 1 binding site

Row | Compound | Ki
1 | CN1CNC2CCC3(C)CC2(Cc2ccc(O)cc23)C1 (stereo unspecified) [3,9-dimethyl-3,5-diazatetracyclo[7.7.1.01,6.010,15]heptadeca-10,12,14-trien-12-ol] | 0.863 µM
2 | COCC12Cc3ccc(O)cc3C(C)(CCC1N)C2 (stereo unspecified) [10-Amino-9-methoxymethyl-1-methyl-tricyclo[7.3.1.0*2,7*]trideca-2,4,6-trien-4-ol] | 0.467 µM
3 | COC[C@]12Cc3ccc(O)cc3[C@](C)(CCc3nnnn31)C2 [1-methoxymethyl-9-methyl-(1S,9R)-2,3,4,5-tetraazatetracyclo[7.7.1.02,6.010,15]heptadeca-3,5,10(15),11,13-pentaen-12-ol] | > 10 µM
4 | CNCC12Cc3ccc(O)cc3C(C)(CCC1N)C2 (stereo unspecified) [10-Amino-1-methyl-9-methylaminomethyl-tricyclo[7.3.1.0*2,7*]trideca-2,4,6-trien-4-ol] | 0.459 µM
5 | CN(C)C1CCC2(C)CC1(CO)Cc1ccc(O)cc12 (stereo unspecified) [10-Dimethylamino-9-hydroxymethyl-1-methyl-tricyclo[7.3.1.0*2,7*]trideca-2,4,6-trien-4-ol] | > 1000 µM
6 | COCC12Cc3ccc(O)cc3C(C)(CCC1N(C)C)C2 (stereo unspecified) [10-Dimethylamino-9-methoxymethyl-1-methyl-tricyclo[7.3.1.0*2,7*]trideca-2,4,6-trien-4-ol] | 1.4 µM
7 | CNC1CCC2(C)CC1(CO)Cc1ccc(O)cc12 (stereo unspecified) [9-Hydroxymethyl-1-methyl-10-methylamino-tricyclo[7.3.1.0*2,7*]trideca-2,4,6-trien-4-ol] | > 1000 µM
8 | CN(C)C1CCC2(C)CC1(C)Cc1ccc(O)cc12 (stereo unspecified) [10-Dimethylamino-1,9-dimethyl-tricyclo[7.3.1.0*2,7*]trideca-2,4,6-trien-4-ol] | 10 µM
9 | CC12CCC(N)C(CO)(Cc3ccc(O)cc31)C2 (stereo unspecified) [10-Amino-9-hydroxymethyl-1-methyl-tricyclo[7.3.1.0*2,7*]trideca-2,4,6-trien-4-ol] | > 1000 µM
10 | COC[C@]12Cc3ccc(O)cc3[C@](C)(CCCN1C)C2 [(1R,9R)-9-Methoxymethyl-1,10-dimethyl-10-aza-tricyclo[7.4.1.0*2,7*]tetradeca-2(7),3,5-trien-4-ol] | > 5 µM
11 | CN1CC23Cc4ccc(O)cc4C(C)(CCC12)C3 (stereo unspecified) [9,13-dimethyl-13-azatetracyclo[7.5.1.01,12.03,8]pentadeca-3,5,7-trien-6-ol] | > 10 µM
